Measurements: PMC6151383 (Molecules : A Journal of Synthetic Chemistry and Natural …, 2017)
Converted amounts (≈) assume the structure as drawn. Where two headings read alike, the source gives them in different places.

Tests used:
[1] = test system: Mycobacterium avium 330/88; test: In vitro antimycobacterial MIC, M. avium; assay type: cell-based
M. kansasii 6509/96 = test: In vitro antimycobacterial MIC, M. kansasii clinical isolate; assay type: cell-based; settings: Mycobacterium kansasii
[2] = test system: Mycobacterium tuberculosis 331/88 (H37Rv); test: In vitro antimycobacterial MIC, M. tuberculosis; assay type: cell-based
[3] = test system: Mycobacterium kansasii 235/80; test: In vitro antimycobacterial MIC, M. kansasii 235/80; assay type: cell-based
[4] = test system: Aspergillus fumigatus 231; test: Antifungal microdilution broth MIC, A. fumigatus; assay type: cell-based
[5] = test system: ESBL-positive Klebsiella pneumoniae J 14368/08
[6] = test system: Trichophyton interdigitale 445; test: Antifungal microdilution broth MIC, T. interdigitale; assay type: cell-based; settings: Trichophyton interdigitale, 445
Candida krusei E28 = test: Antifungal microdilution broth MIC, C. krusei; assay type: cell-based; settings: Pichia kudriavzevii
[7] = test system: Klebsiella pneumoniae D 11750/08
Candida tropicalis 156 = test: Antifungal microdilution broth MIC, C. tropicalis; assay type: cell-based
[8] = test system: Candida albicans ATCC 44859; test: Antifungal microdilution broth MIC, C. albicans; assay type: cell-based
Candida glabrata 20/I = test: Antifungal microdilution broth MIC, C. glabrata; assay type: cell-based; settings: Nakaseomyces glabratus
[9] = test system: Lichtheimia corymbifera 272; test: Antifungal microdilution broth MIC, L. corymbifera; assay type: cell-based; settings: Lichtheimia corymbifera, 272; 48 h incubation; read-out: MIC LC 48 h
[10] = test system: Staphylococcus epidermidis H 6966/08; test: Antibacterial microdilution broth MIC, S. epidermidis; assay type: cell-based; settings: Staphylococcus epidermidis
[11] = test system: Pseudomonas aeruginosa CCM 1961; test: Antibacterial microdilution broth MIC, P. aeruginosa; assay type: cell-based; settings: Pseudomonas aeruginosa, CCM1961; 48 h incubation; read-out: MIC PA 48 h
Trichosporon asahii 1188 = test: Antifungal microdilution broth MIC, T. asahii; assay type: cell-based
[12] = test system: Escherichia coli CCM 4517; test: Antibacterial microdilution broth MIC, E. coli; assay type: cell-based; settings: Escherichia coli, CCM4517; 48 h incubation; read-out: MIC EC 48 h
[13] = test system: Enterococcus faecalis J 14365/08; test: Antibacterial microdilution broth MIC, E. faecalis; assay type: cell-based; settings: Enterococcus faecalis, J14365/08; 48 h incubation; read-out: MIC EF 48 h
[14] = test system: Staphylococcus aureus CCM 4516/08; test: Antibacterial microdilution broth MIC, S. aureus; assay type: cell-based; settings: Staphylococcus aureus, CCM4516; 48 h incubation; read-out: MIC SA 48 h
[15] = 330/88, 336 h, 14 d incubation, read-out: MIC M. avium 330/88 14 d
[16] = 330/88, 504 h, 21 d incubation, read-out: MIC M. avium 330/88 21 d
[17] = 6509/96, 168 h, 7 d incubation, read-out: MIC M. kansasii 6509/96 7 d
[18] = 6509/96, 336 h, 14 d incubation, read-out: MIC M. kansasii 6509/96 14 d
[19] = 6509/96, 504 h, 21 d incubation, read-out: MIC M. kansasii 6509/96 21 d
[20] = 336 h, 14 d incubation, read-out: MIC Mtb. 331/88 14 d
[21] = 504 h, 21 d incubation, read-out: MIC Mtb. 331/88 21 d
[22] = 235/80, 168 h, 7 d incubation, read-out: MIC M. kansasii 235/80 7 d
[23] = 235/80, 336 h, 14 d incubation, read-out: MIC M. kansasii 235/80 14 d
[24] = 235/80, 504 h, 21 d incubation, read-out: MIC M. kansasii 235/80 21 d
[25] = 72 h incubation, read-out: MIC TI 72 h
[26] = 120 h incubation, read-out: MIC TI 120 h

| Structure (SMILES) | MIC [1, 15] | MIC [1, 16] | MIC (M. kansasii 6509/96; [17]) | MIC (M. kansasii 6509/96; [18]) | MIC (M. kansasii 6509/96; [19]) | MIC [2, 20] | MIC [2, 21] | MIC [3, 22] | MIC [3, 23] | MIC [3, 24] | MIC KP-E 24 h [5] | MIC KP-E 48 h [5] | MIC [6, 25] | MIC [6, 26] | MIC KP 24 h [7] | MIC KP 48 h [7] | MIC [9] | MIC [11] | MIC [12] | MIC [13] | other results |
| --- | --- | --- | --- | --- | --- | --- | --- | --- | --- | --- | --- | --- | --- | --- | --- | --- | --- | --- | --- | --- | --- |
| NNC(=O)c1ccncc1 [INH, isoniazid, reference compound] | > 250 µM | > 250 µM | 8 µM (≈ 1.1 µg/mL) | 8 µM (≈ 1.1 µg/mL) | 8 µM (≈ 1.1 µg/mL) | 0.5 µM (≈ 0.0686 µg/mL) | 1 µM (≈ 0.137 µg/mL) | > 250 µM | > 250 µM | > 250 µM |  |  |  |  |  |  |  |  |  |  |  |
| O=S(=O)(Nc1ncccn1)c1ccc(N=Cc2cc(Cl)cc(I)c2O)cc1 [Compound 2o, 4-[(5-Chloro-2-hydroxy-3-iodobenzylidene)amino]-N-(pyrimidin-2-yl)benzenesulfonamide] | 500 µM (≈ 257 µg/mL) | 500 µM (≈ 257 µg/mL) | 62.5 µM (≈ 32.2 µg/mL) | 125 µM (≈ 64.3 µg/mL) | 125 µM (≈ 64.3 µg/mL) | 125 µM (≈ 64.3 µg/mL) | 125 µM (≈ 64.3 µg/mL) | 125 µM (≈ 64.3 µg/mL) | 250 µM (≈ 129 µg/mL) | 250 µM (≈ 129 µg/mL) | 500 µM (≈ 257 µg/mL) | 500 µM (≈ 257 µg/mL) | 1.95 µM (≈ 1 µg/mL) | 1.95 µM (≈ 1 µg/mL) | 500 µM (≈ 257 µg/mL) | 500 µM (≈ 257 µg/mL) | 250 µM (≈ 129 µg/mL) | 500 µM (≈ 257 µg/mL) | 250 µM (≈ 129 µg/mL) | 250 µM (≈ 129 µg/mL) | MIC ([4]; Aspergillus fumigatus, 231, 24 h, read-out: MIC AF 24 h): 62.5 µM (≈ 32.2 µg/mL); MIC ([4]; Aspergillus fumigatus, 231, 48 h, read-out: MIC AF 48 h): 62.5 µM (≈ 32.2 µg/mL); MIC (Candida krusei E28; E28, 48 h incubation, read-out: MIC CK 48 h): 7.81 µM (≈ 4.02 µg/mL); MIC (Candida tropicalis 156; Candida tropicalis, 156, 48 h incubation, read-out: MIC CT 48 h): 7.81 µM (≈ 4.02 µg/mL); MIC ([8]; ATCC44859, 48 h incubation, read-out: MIC CA 48 h): 7.81 µM (≈ 4.02 µg/mL); MIC (Candida glabrata 20/I; 48 h incubation, read-out: MIC CG 48 h): 7.81 µM (≈ 4.02 µg/mL); MIC ([10]; H6966/08, 48 h incubation, read-out: MIC SE 48 h): 31.2 µM (≈ 16.1 µg/mL); MIC (Trichosporon asahii 1188; Trichosporon asahii, 1188, 48 h incubation, read-out: MIC TA 48 h): 7.81 µM (≈ 4.02 µg/mL); MIC [14]: 15.6 µM (≈ 8.04 µg/mL) |
| O=S(=O)(Nc1ncccn1)c1ccc(N=Cc2cc(I)ccc2O)cc1 [Compound 2e, 4-[(2-Hydroxy-5-iodobenzylidene)amino]-N-(pyrimidin-2-yl)benzenesulfonamide] | 125 µM (≈ 60 µg/mL) | 250 µM (≈ 120 µg/mL) | 32 µM (≈ 15.4 µg/mL) | 32 µM (≈ 15.4 µg/mL) | 62.5 µM (≈ 30 µg/mL) | 62.5 µM (≈ 30 µg/mL) | 125 µM (≈ 60 µg/mL) | 32 µM (≈ 15.4 µg/mL) | 62.5 µM (≈ 30 µg/mL) | 125 µM (≈ 60 µg/mL) | 500 µM (≈ 240 µg/mL) | 500 µM (≈ 240 µg/mL) | 31.2 µM (≈ 15 µg/mL) | 31.2 µM (≈ 15 µg/mL) | 500 µM (≈ 240 µg/mL) | 500 µM (≈ 240 µg/mL) | > 500 µM | 500 µM (≈ 240 µg/mL) | 250 µM (≈ 120 µg/mL) | 500 µM (≈ 240 µg/mL) | MIC ([4]; Aspergillus fumigatus, 231, 48 h incubation, read-out: MIC AF 48 h): 250 µM (≈ 120 µg/mL); MIC (Candida krusei E28; E28, 24 h, read-out: MIC CK 24 h): 62.5 µM (≈ 30 µg/mL); MIC (Candida krusei E28; E28, 48 h, read-out: MIC CK 48 h): 125 µM (≈ 60 µg/mL); MIC (Candida tropicalis 156; Candida tropicalis, 156, 24 h, read-out: MIC CT 24 h): 125 µM (≈ 60 µg/mL); MIC (Candida tropicalis 156; Candida tropicalis, 156, 48 h, read-out: MIC CT 48 h): 125 µM (≈ 60 µg/mL); MIC ([8]; ATCC44859, 24 h, read-out: MIC CA 24 h): 62.5 µM (≈ 30 µg/mL); MIC ([8]; ATCC44859, 48 h, read-out: MIC CA 48 h): 125 µM (≈ 60 µg/mL); MIC (Candida glabrata 20/I; 24 h, read-out: MIC CG 24 h): 62.5 µM (≈ 30 µg/mL); MIC (Candida glabrata 20/I; 48 h, read-out: MIC CG 48 h): 62.5 µM (≈ 30 µg/mL); MIC ([10]; H6966/08, 24 h, read-out: MIC SE 24 h): 62.5 µM (≈ 30 µg/mL); MIC ([10]; H6966/08, 48 h, read-out: MIC SE 48 h): 125 µM (≈ 60 µg/mL); MIC (Trichosporon asahii 1188; Trichosporon asahii, 1188, 24 h, read-out: MIC TA 24 h): 125 µM (≈ 60 µg/mL); MIC (Trichosporon asahii 1188; Trichosporon asahii, 1188, 48 h, read-out: MIC TA 48 h): 125 µM (≈ 60 µg/mL); MIC [14]: 250 µM (≈ 120 µg/mL) |
